Converted amounts (≈) assume the structure as drawn.
Columns and labels:
[1] = tested on: S. aureus ATCC 13709 (Smith diffuse); assay: Murine lethal bacteremic peritonitis (septicemia) efficacy; assay type: in vivo, mice; conditions: for responders at 0.312 mg/kg: dose 0.312 mg/kg s.c. at 0 and 2 h post-challenge; for responders at 0.625 mg/kg: dose 0.625 mg/kg s.c. at 0 and 2 h post-challenge; for responders at 1.25 mg/kg: dose 1.25 mg/kg s.c. at 0 and 2 h post-challenge; for responders at 2.5 mg/kg: dose 2.5 mg/kg s.c. at 0 and 2 h post-challenge; for ED50: ATCC13709, mice, S. aureus ATCC 13709 i.p., s.c. at 0 and 2 h post-challenge, probit method; for Efficacy in murine septicemia % survival: dose 5 mg/kg s.c. at 0 and 2 h post-challenge
Experimental: 10 mice/group were injected intraperitoneally with 2.98×10^7 cfu S. aureus ATCC 13709 (Smith diffuse) and treated at 0 and 2 hrs post-challenge with serial two-fold doses of new cephalosporin antibiotic, imipenem and vancomycin subcutaneously in order to determine the ED50. Male Swiss-Webster mice weighing originally 24.2-26.1 g were obtained from Charles Rivers Labs, Hollister, Calif. Mice were housed 10 per cage and given free access to water and mouse chow.
Staphylococcus aureus ATCC 13709 (Smith diffuse) was grown overnight at 37° C. in Brain-heart Infusion broth (BHIB). The following morning, it was subcultured to fresh BHIB and incubated for 4-5 h at 37° C. The log-phase growth cells were washed once with physiological saline and adjusted to the desired concentration by correlation of absorbency at OD 600 nm with predetermined plate counts (NCCLS, 1994). The cell suspension was mixed with an equal volume of sterile 14% hog-gastric mucin (2). Inoculum was kept in an ice bath until used (<1 h).
Mice were challenged via an injection of 0.5 mL bacterial suspension intraperitoneally. The bacterial challenge was 2.98×10^7 cfu/mouse.
Imipenem (Primaxin IV; Lot 7294A), vancomycin (Vancocin; Lot 8MU60W), and new cephalosporin antibiotic were prepared by serial two-fold dilutions to concentrations of 0.078-0.005 mg/mL, 1.2-0.075 mg/mL, 0.3-0.02 mg/mL, 0.3-0.02 mg/mL and 0.3-0.02 mg/mL respectively in sterile water (1). All antibiotics were administered subcutaneously in 0.1 mL volumes at 0 and 2 hours post-challenge. Concentrations of all compounds are based on the weight of the bioactive ingredients.
The 50% effective dose (ED50) was calculated by the probit method (3) utilizing a program entitled Probit (Nycomed-Salutar).

E. faecalis ATCC 29212 = assay: Broth microdilution MIC (NCCLS); assay type: cell-based; conditions: Enterococcus faecalis, ATCC29212
Outline: (§1)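 Following NCCLS guidance, compounds were titrated 2-fold in Mueller-Hinton broth against 5×10^5 CFU/mL inocula. After 24 h at 35° C, growth was judged by absorbance at 650 nm and by eye. The MIC was taken as the lowest concentration that stopped growth.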

S. aureus ATCC 29213 = assay: Broth microdilution MIC (NCCLS); assay type: cell-based; conditions: Staphylococcus aureus, ATCC29213; S. aureus ATCC 29213; Mueller-Hinton broth, 24 h at 35° C.; read-out: MIC
Outline: as §1

E. faecium ATCC 35667 = assay: Broth microdilution MIC (NCCLS); assay type: cell-based; conditions: Enterococcus faecium, ATCC35667
Outline: as §1

E. faecalis VanB (Van^R) = assay: Broth microdilution MIC (NCCLS); assay type: cell-based; conditions: Enterococcus faecalis
Outline: as §1

[2] = tested on: S. aureus ATCC 13709 (Meth^S); assay: Broth microdilution MIC (NCCLS); assay type: cell-based; conditions: Staphylococcus aureus, ATCC13709, S. aureus ATCC 13709 (Meth^S); read-out: MIC
Outline: as §1

[3] = tested on: S. aureus PC1 (Meth^S)(lac^+); assay: Broth microdilution MIC (NCCLS); assay type: cell-based; conditions: Staphylococcus aureus
Outline: as §1

[4] = tested on: S. aureus Col (Meth^R)(lac^−); assay: Broth microdilution MIC (NCCLS); assay type: cell-based; conditions: Staphylococcus aureus
Outline: as §1

P. aeruginosa ATCC 27853 = assay: Broth microdilution MIC (NCCLS); assay type: cell-based; conditions: Pseudomonas aeruginosa, ATCC27853
Outline: (§2)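 Endpoint: lowest concentration preventing visible or OD650-detected growth. Conditions: Mueller-Hinton broth, serial 2-fold compound dilutions, 5×10^5 CFU/mL, 35° C for 24 h. Inoculum counts were checked by plating on TSA.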

[5] = tested on: S. aureus 76 (Meth^R)(lac^+); assay: Broth microdilution MIC (NCCLS); assay type: cell-based; conditions: Staphylococcus aureus
Outline: as §1

E. faecium VanA (Van^R) = assay: Broth microdilution MIC (NCCLS); assay type: cell-based; conditions: Enterococcus faecium
Outline: as §1

[6] = tested on: S. haemolyticus 05 (Meth^R); assay: Broth microdilution MIC (NCCLS); assay type: cell-based; conditions: Staphylococcus haemolyticus
Outline: as §1

E. faecium A491 (Amp^R) = assay: Broth microdilution MIC (NCCLS); assay type: cell-based; conditions: Enterococcus faecium
Outline: as §1

[7] = tested on: S. aureus ATCC 33593 (Meth^R); assay: Broth microdilution MIC (NCCLS); assay type: cell-based; conditions: Staphylococcus aureus, ATCC33593
Outline: as §1

E. coli ATCC25992 = assay: Broth microdilution MIC (NCCLS); assay type: cell-based; conditions: Escherichia coli
Outline: as §2

[8] = Staphylococcus aureus, ATCC13709, sc, read-out: Efficacy in murine septicemia % survival

Structure (SMILES)	responders at 0.312 mg/kg [1, 8] [%]	responders at 0.625 mg/kg [1, 8] [%]	responders at 1.25 mg/kg [1, 8] [%]	responders at 2.5 mg/kg [1, 8] [%]	ED50 ([1]; Staphylococcus aureus) [mg/kg]	MIC (E. faecalis ATCC 29212) [µg/mL]	MIC (S. aureus ATCC 29213) [µg/mL]	MIC (E. faecium ATCC 35667) [µg/mL]	MIC (E. faecalis VanB (Van^R)) [µg/mL]	MIC [2] [µg/mL]	MIC [3] [µg/mL]	MIC [4] [µg/mL]	MIC (P. aeruginosa ATCC 27853) [µg/mL]	MIC [5] [µg/mL]	MIC (E. faecium VanA (Van^R)) [µg/mL]	MIC [6] [µg/mL]	MIC [7] [µg/mL]	MIC (E. coli ATCC25992) [µg/mL]	Efficacy in murine septicemia % survival [1]	further results
NCCSCc1cnccc1SC1=C(C(=O)O)N2C(=O)[C@@H](NC(=O)/C(=N\O)c3nc(N)sc3Cl)[C@H]2SC1 [Cmpd 20, (7R)-7-[(Z)-2-(2-amino-5-chlorothiazol-4-yl)-2-(hydroxyimino)acetamido]-3-[3-(2-aminoethylthiomethyl)pyrid-4-ylthio]-3-cephem-4-carboxylic acid]	10	30	58	80	1	0.06 (≈ 0.0996 µM)	0.25 (≈ 0.415 µM)	0.5 (≈ 0.83 µM)	0.13 (≈ 0.216 µM)	0.13 (≈ 0.216 µM)	0.25 (≈ 0.415 µM)	0.5 (≈ 0.83 µM)	> 32	1 (≈ 1.66 µM)	0.25 (≈ 0.415 µM)	2 (≈ 3.32 µM)	1 (≈ 1.66 µM)	8 (≈ 13.3 µM)	–	responders at 0.156 mg/kg ([1]; Staphylococcus aureus, ATCC13709, sc, dose 0.156 mg/kg s.c. at 0 and 2 h post-challenge, read-out: Efficacy in murine septicemia % survival): 20%; MIC (E. faecium A491 (Amp^R)): 8 µg/mL (≈ 13.3 µM)
NCCSCc1nc(N)sc1SC1=C(C(=O)O)N2C(=O)[C@@H](NC(=O)/C(=N\O)c3nc(N)sc3Cl)[C@H]2SC1 [Cmpd 3, (7R)-7-[(Z)-2-(2-amino-5-chlorothiazol-4-yl)-2-(hydroxyimino)acetamido]-3-[4-(2-aminoethylthiomethyl)-2-amino-1,3-thiazol-5-ylthio]-3-cephem-4-carboxylic acid]	50	90	90	100	0.39	–	0.25 (≈ 0.401 µM)	1 (≈ 1.6 µM)	0.25 (≈ 0.401 µM)	0.13 (≈ 0.209 µM)	0.25 (≈ 0.401 µM)	–	4 (≈ 6.42 µM)	1 (≈ 1.6 µM)	8 (≈ 12.8 µM)	1 (≈ 1.6 µM)	–	–	–	responders at 0.078 mg/kg ([1]; Staphylococcus aureus, ATCC13709, sc, dose 0.078 mg/kg s.c. at 0 and 2 h post-challenge, read-out: Efficacy in murine septicemia % survival): 30%; responders at 0.165 mg/kg ([1]; Staphylococcus aureus, ATCC13709, sc, dose 0.165 mg/kg s.c. at 0 and 2 h post-challenge, read-out: Efficacy in murine septicemia % survival): 40%
NCCSCc1nc(SCCN)sc1SC1=C(C(=O)O)N2C(=O)[C@@H](NC(=O)/C(=N\O)c3nc(N)sc3Cl)[C@H]2SC1 [Cmpd 11, (7R)-7-[(Z)-2-(2-amino-5-chlorothiazol-4-yl)-2-(hydroxyimino)acetamido]-3-[4-(2-aminoethylthiomethyl)-2-aminoethylthio-1,3-thiazol-5-ylthio]-3-cephem-4-carboxylic acid]	–	–	–	–	–	0.06 (≈ 0.0878 µM)	0.06 (≈ 0.0878 µM)	0.5 (≈ 0.732 µM)	0.06 (≈ 0.0878 µM)	0.13 (≈ 0.19 µM)	0.13 (≈ 0.19 µM)	0.5 (≈ 0.732 µM)	2 (≈ 2.93 µM)	0.5 (≈ 0.732 µM)	4 (≈ 5.85 µM)	0.5 (≈ 0.732 µM)	0.5 (≈ 0.732 µM)	2 (≈ 2.93 µM)	–	MIC (E. faecium A491 (Amp^R)): 4 µg/mL (≈ 5.85 µM)
N=C(N)NCCSCc1ncccc1SC1=C(C(=O)O)N2C(=O)[C@@H](NC(=O)/C(=N\O)c3nsc(N)n3)[C@H]2SC1 [Cmpd 14, (7R)-7-[(Z)-2-(5-amino-1,2,4-thiadiazol-3-yl)-2-(hydroxyimino)acetamido]-3-[2-(2-guanidinoethylthiomethyl)pyrid-3-ylthio]-3-cephem-4-carboxylic acid]	90	100	100	100	< 0.31	–	–	–	0.25 (≈ 0.409 µM)	–	–	–	–	–	–	–	–	–	5/100%	–
NCCSCc1ncsc1SC1=C(C(=O)O)N2C(=O)[C@@H](NC(=O)/C(=N\O)c3cccc(N)n3)[C@H]2SC1 [Cmpd 23, (7R)-7-[(Z)-2-(2-aminopyrid-6-yl)-2-(hydroxyimino)acetamido]-3-[4-(2-aminoethylthiomethyl)-1,3-thiazol-5-ylthio]-3-cephem-4-carboxylic acid]	40	–	100	100	0.39	0.25 (≈ 0.44 µM)	0.13 (≈ 0.229 µM)	2 (≈ 3.52 µM)	0.5 (≈ 0.881 µM)	0.06 (≈ 0.106 µM)	0.13 (≈ 0.229 µM)	1 (≈ 1.76 µM)	> 32	2 (≈ 3.52 µM)	2 (≈ 3.52 µM)	4 (≈ 7.05 µM)	1 (≈ 1.76 µM)	16 (≈ 28.2 µM)	5/100%	–
NCCSCc1ncccc1SC1=C(C(=O)O)N2C(=O)[C@@H](NC(=O)/C(=N\O)c3nsc(N)n3)[C@H]2SC1 [Cmpd 17, (7R)-7-[(Z)-2-(5-amino-1,2,4-thiadiazol-3-yl)-2-(hydroxyimino)acetamido]-3-[2-(2-aminoethylthiomethyl)pyrid-3-ylthio]-3-cephem-4-carboxylic acid]	–	–	–	–	0.39	–	0.25 (≈ 0.44 µM)	–	–	0.25 (≈ 0.44 µM)	0.25 (≈ 0.44 µM)	–	–	–	–	–	–	–	–	responders at 0.12 mg/kg ([1]; Staphylococcus aureus, ATCC13709, sc, dose 0.12 mg/kg s.c. at 0 and 2 h post-challenge, read-out: Efficacy in murine septicemia % survival): 10%; responders at 0.25 mg/kg ([1]; Staphylococcus aureus, ATCC13709, sc, dose 0.25 mg/kg s.c. at 0 and 2 h post-challenge, read-out: Efficacy in murine septicemia % survival): 20%; responders at 0.5 mg/kg ([1]; Staphylococcus aureus, ATCC13709, sc, dose 0.5 mg/kg s.c. at 0 and 2 h post-challenge, read-out: Efficacy in murine septicemia % survival): 50%; responders at 1 mg/kg ([1]; Staphylococcus aureus, ATCC13709, sc, dose 1.0 mg/kg s.c. at 0 and 2 h post-challenge, read-out: Efficacy in murine septicemia % survival): 100%; responders at 2 mg/kg ([1]; Staphylococcus aureus, ATCC13709, sc, dose 2.0 mg/kg s.c. at 0 and 2 h post-challenge, read-out: Efficacy in murine septicemia % survival): 100%
NCCSCc1ccncc1SC1=C(C(=O)O)N2C(=O)[C@@H](NC(=O)/C(=N\O)c3nc(N)sc3Cl)[C@H]2SC1 [Cmpd 21, (7R)-7-[(Z)-2-(2-amino-5-chlorothiazol-4-yl)-2-(hydroxyimino)acetamido]-3-[4-(2-aminoethylthiomethyl)pyrid-3-ylthio]-3-cephem-4-carboxylic acid]	0	0	70	80	0.79	–	–	–	–	–	0.25 (≈ 0.415 µM)	–	–	–	–	–	–	–	–	–
NCCSCc1ncccc1SC1=C(C(=O)O)N2C(=O)[C@@H](NC(=O)/C(=N\O)c3nc(N)sc3Cl)[C@H]2SC1 [Cmpd 13, (7R)-7-[(Z)-2-(2-amino-5-chlorothiazol-4-yl)-2-(hydroxyimino)acetamido]-3-[2-(2-aminoethylthiomethyl)pyrid-3-ylthio]-3-cephem-4-carboxylic acid]	–	100	100	100	–	–	0.25 (≈ 0.415 µM)	–	–	–	0.25 (≈ 0.415 µM)	0.5 (≈ 0.83 µM)	–	–	–	–	–	–	5/100%	–

— patent publication US6723716B1, “7-acylamino-3-heteroarylthio-3-cephem carboxylic acid antibiotics and prodrugs thereof” (Essential Therapeutics, Inc., priority 1999, dated 2004)
